Key:
Format in all cases: physicochemical
[1] = Color rendering property (hue change under tungsten light versus standard light source, visual); conditions: hue change under tungsten light compared with standard light source
Protocol: (§1) A liquid having the following formulation was prepared and passed through a 0.45 μm membrane filter to obtain an aqueous ink composition for ink jet printers.
(§2) An ink jet recording was conducted on three different papers, i.e. plain papers (Canon printer paper A4 (TLB5A4S)), ink jet papers A (Color BJ Paper LC 101; ex. Canon) and ink jet papers B (coated papers for ink jet printer STX73 A4; ex. Sharp) by means of an ink jet printer (trade name NOVA JET III; ex. ENCAD). The thus-recorded images were tested with respect to the resistances to light and water and a color rendering property.
Discoloration was judged by the visual examination by comparing the hue change under the tungsten light with that under the standard light source.

[2] = Test for resistance to light of the recorded images (carbon arc fade meter, Blue Scale JIS L-0841); conditions: 20 hours carbon arc fade meter; for light fastness (rank) ink jet paper A: ink jet print on ink jet paper A (Color BJ Paper LC 101, Canon); for light fastness (rank) ink jet paper B: ink jet print on ink jet paper B (coated paper STX73 A4, Sharp); for light fastness (rank) plain paper: ink jet print on plain paper (Canon TLB5A4S)
Protocol: as §1, §2
The recorded images were irradiated with light for 20 hours by means of a carbon arc fade meter (ex. SUGA Shikenkisha). Light fastness was judged according to the Blue Scale for light resistance standard as defined in JIS L-0841.

[3] = Test for resistance to water of the recorded images (immersion in water, visual examination of dropout); parameters: key to water fastness plain paper: ∘: Less amount of the compound was dropped out.; Δ: About half of the compound was dropped out.; X: Large amount of the compound was dropped out; conditions: immersed in water 2 minutes with mild stirring, dried; for water fastness ink jet paper A: ink jet print on ink jet paper A; for water fastness ink jet paper B: ink jet print on ink jet paper B; for water fastness plain paper: ink jet print on plain paper
Protocol: as §1, §2
Test specimen was immersed in water contained in a beaker with mild stirring for 2 minutes and dried. Amount of the compound was observed by the visual examination before and after the immersion, and dropout of the compound was judged.

Row | color rendering property [1] | light fastness (rank) ink jet paper A [2] [rank] | light fastness (rank) ink jet paper B [2] [rank] | light fastness (rank) plain paper [2] | water fastness ink jet paper A [3] | water fastness ink jet paper B [3] | water fastness plain paper [3] | SMILES
1 | ◯ | 5 | 5 | 5 rank | ◯ | ◯ | Δ | COc1cc(N=Nc2cc(S(=O)(=O)O)cc3cc(S(=O)(=O)O)cc(O)c23)c(NC(C)=O)cc1N=Nc1c(S(=O)(=O)O)cc2cc(S(=O)(=O)O)c(N=Nc3cc(S(=O)(=O)O)c(N)cc3N)cc2c1O [compound 0234]
2 | ◯ | 4 | 5 | 4-5 rank | ◯ | ◯ | ◯ | COc1cc(N=Nc2cc(S(=O)(=O)O)cc3cc(S(=O)(=O)O)cc(O)c23)c(N)cc1N=Nc1c(S(=O)(=O)O)cc2cc(S(=O)(=O)O)c(N=Nc3ccc(N)cc3O)cc2c1O [compound 0264]
